tested on: YAP-TEAD; assay: YAP-TEAD inhibitor activity by Nano luciferase method (8xGTiiC-nLuc reporter in 293T cells); assay type: cell-based; conditions: Homo sapiens, HEK-293T, 48 hours incubation, read-out: Nano-luciferase detection (IC50)
Outline: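 IC50 derived from nLuc reporter signal normalised to 0 nM wells, after 48 h, 37 °C compound exposure (1:3.16 series, highest 10,000 nM). Cells: 293T transfected with 8xGTiiC-nLuc/CMV-fLuc plasmid, plated at 2000 per well.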

SMILES	IC50 [nM]
C[C@H](NC(=O)c1ccc2c(c1)c1nn(C)cc1c(=O)n2-c1ccc(C(F)(F)F)cc1)c1ccccn1 [Example T-105]	≤ 1000
CNS(=O)(=O)c1ccc2c(c1)c1cn(C)nc1c(=O)n2-c1ccc(C(F)(F)F)cc1 [Example T-32]	≤ 1000
C[C@H](NC(=O)c1ccc2c(c1)c1cnccc1c(=O)n2-c1ccc(C(F)(F)F)cc1)c1ccccn1 [Example T-253]	≤ 1000

Results, then the molecule that gave them:

IC50 [nM]	SMILES
≤ 1000	Cc1cc(=O)n(-c2ccc(C(F)(F)F)cc2)c2ccc(C(=O)N[C@@H](C)c3ccccn3)cc12 [Example T-277]
≤ 1000	C[C@H](NC(=O)c1ccc2c(c1)c1ccccc1c(=O)n2-c1ccc(C(F)(F)F)cc1)c1ccccn1 [Example T-272]

Reference: US20250154105A1, “POLYCYCLIC COMPOUND AND USE THEREOF” (TYK MEDICINES, INC., priority 2021, published 2025)
